Data taken from ChEMBL document CHEMBL3885861, “Open TG-GATES”.

Organism: Rattus norvegicus
Test: Open TG-GATES - Regimen: Single
Format: toxicity, organism-based, Sprague-Dawley
Parameters: regimen Single, gender Male, age 6 weeks
Details: in vivo, po, 0 mg/kg, route gavage, dose level Control; for APTT / Bas / Eos / Fbg / Hb / Ht / Lym / MCH / MCHC / MCV / Mono / Neu / PT / Plat / RBC / Ret / WBC: tissue Blood; for KIDNEY_L / KIDNEY_R / KIDNEY_TOTAL: tissue Kidney; for LIVER: tissue Liver; for A/G / ALP / ALT / AST / BUN / CRE / Ca / Cl / DBIL / GLC / IP / K / LDH / Na / PL / RALB / TBIL / TC / TG / TP / gamma-GTP: tissue Plasma

SMILES: CC(S)C(=O)NCC(=O)O (configuration not stated) [TIOPRONIN]
- TERMINAL_BW (3 h): 208.8 g
- APTT (3 h): 22.5 s
- Bas (3 h): 0%
- Eos (3 h): 0.8%
- Fbg (3 h): 292.4 mg/dL
- Hb (3 h): 13.1 g/dL
- Ht (3 h): 40.4%
- Lym (3 h): 81.6%
- MCH (3 h): 20.2 pg
- MCHC (3 h): 32.5%
- MCV (3 h): 62.3 fL
- Mono (3 h): 1.4%
- Neu (3 h): 15.8%
- PT (3 h): 16.1 s
- Plat (3 h): 120.4 x10_4/uL
- RBC (3 h): 649.6 x10_4/ul
- Ret (3 h): 7.5%
- WBC (3 h): 75.2 x10_2/uL
- KIDNEY_L (3 h): 0.9 g
- KIDNEY_R (3 h): 0.9 g
- KIDNEY_TOTAL (3 h): 1.8 g
- LIVER (3 h): 9.1 g
- A/G (3 h): 1.2
- ALP (3 h): 2032.2 IU/L
- ALT (3 h): 46 IU/L
- AST (3 h): 80.4 IU/L
- BUN (3 h): 11.4 mg/dL
- CRE (3 h): 0.1 mg/dL
- Ca (3 h): 10.7 mg/dL
- Cl (3 h): 107 meq/L
- DBIL (3 h): 0.002 mg/dL
- GLC (3 h): 190.8 mg/dL
- IP (3 h): 7.7 mg/dL
- K (3 h): 4.1 meq/L
- LDH (3 h): 203.8 IU/L
- Na (3 h): 143.8 meq/L
- PL (3 h): 128.6 mg/dL
- RALB (3 h): 2.9 g/dL
- TBIL (3 h): 0.02 mg/dL
- TC (3 h): 70.8 mg/dL
- TG (3 h): 65.4 mg/dL
- TP (3 h): 5.4 g/dL
- gamma-GTP (3 h): 1.8 IU/L
- TERMINAL_BW (6 h): 208.1 g
- APTT (6 h): 21.5 s
- Bas (6 h): 0%
- Eos (6 h): 0.2%
- Fbg (6 h): 295.4 mg/dL
- Hb (6 h): 13 g/dL
- Ht (6 h): 39.8%
- Lym (6 h): 83%
- MCH (6 h): 21 pg
- MCHC (6 h): 32.8%
- MCV (6 h): 64.1 fL
- Mono (6 h): 1.8%
- Neu (6 h): 14.2%
- PT (6 h): 15.8 s
- Plat (6 h): 116.3 x10_4/uL
- RBC (6 h): 621 x10_4/ul
- Ret (6 h): 8.1%
- WBC (6 h): 116.1 x10_2/uL
- KIDNEY_L (6 h): 0.9 g
- KIDNEY_R (6 h): 1 g
- KIDNEY_TOTAL (6 h): 1.9 g
- LIVER (6 h): 9 g
- A/G (6 h): 1.2
- ALP (6 h): 1487.4 IU/L
- ALT (6 h): 39 IU/L
- AST (6 h): 69.6 IU/L
- BUN (6 h): 10.6 mg/dL
- CRE (6 h): 0.1 mg/dL
- Ca (6 h): 10.5 mg/dL
- Cl (6 h): 106.4 meq/L
- DBIL (6 h): 0.002 mg/dL
- GLC (6 h): 184.2 mg/dL
- IP (6 h): 8.8 mg/dL
- K (6 h): 4.4 meq/L
- LDH (6 h): 154.4 IU/L
- Na (6 h): 143.8 meq/L
- PL (6 h): 141.4 mg/dL
- RALB (6 h): 2.9 g/dL
- TBIL (6 h): 0.022 mg/dL
- TC (6 h): 80.2 mg/dL
- TG (6 h): 72.2 mg/dL
- TP (6 h): 5.3 g/dL
- gamma-GTP (6 h): 1.6 IU/L
- TERMINAL_BW (9 h): 209.7 g
- APTT (9 h): 22.9 s
- Bas (9 h): 0%
- Eos (9 h): 0.8%
- Fbg (9 h): 294.2 mg/dL
- Hb (9 h): 12.7 g/dL
- Ht (9 h): 39.4%
- Lym (9 h): 81.6%
- MCH (9 h): 19.9 pg
- MCHC (9 h): 32.1%
- MCV (9 h): 61.7 fL
- Mono (9 h): 2%
- Neu (9 h): 15.2%
- PT (9 h): 16.2 s
- Plat (9 h): 121.4 x10_4/uL
- RBC (9 h): 639.2 x10_4/ul
- Ret (9 h): 8.3%
- WBC (9 h): 95.7 x10_2/uL
- KIDNEY_L (9 h): 0.9 g
- KIDNEY_R (9 h): 0.9 g
- KIDNEY_TOTAL (9 h): 1.9 g
- LIVER (9 h): 9.1 g
- A/G (9 h): 1.1
- ALP (9 h): 1667.4 IU/L
- ALT (9 h): 36.2 IU/L
- AST (9 h): 65.8 IU/L
- BUN (9 h): 12.2 mg/dL
- CRE (9 h): 0.1 mg/dL
- Ca (9 h): 10.5 mg/dL
- Cl (9 h): 105 meq/L
- DBIL (9 h): 0 mg/dL
- GLC (9 h): 195.8 mg/dL
- IP (9 h): 9.8 mg/dL
- K (9 h): 4.5 meq/L
- LDH (9 h): 147 IU/L
- Na (9 h): 143.8 meq/L
- PL (9 h): 120.2 mg/dL
- RALB (9 h): 2.8 g/dL
- TBIL (9 h): 0.012 mg/dL
- TC (9 h): 64.8 mg/dL
- TG (9 h): 64.2 mg/dL
- TP (9 h): 5.3 g/dL
- gamma-GTP (9 h): 1.4 IU/L
- TERMINAL_BW (24 h): 219.9 g
- APTT (24 h): 21.2 s
- Bas (24 h): 0%
- Eos (24 h): 1%
- Fbg (24 h): 307 mg/dL
- Hb (24 h): 12.9 g/dL
- Ht (24 h): 39.6%
- Lym (24 h): 77.8%
- MCH (24 h): 21.2 pg
- MCHC (24 h): 32.7%
- MCV (24 h): 64.7 fL
- Mono (24 h): 3%
- Neu (24 h): 17.4%
- PT (24 h): 16.4 s
- Plat (24 h): 115.1 x10_4/uL
- RBC (24 h): 612 x10_4/ul
- Ret (24 h): 7.6%
- WBC (24 h): 103.4 x10_2/uL
- KIDNEY_L (24 h): 1 g
- KIDNEY_R (24 h): 1 g
- KIDNEY_TOTAL (24 h): 2 g
- LIVER (24 h): 10.1 g
- A/G (24 h): 1.1
- ALP (24 h): 1636.2 IU/L
- ALT (24 h): 44 IU/L
- AST (24 h): 74.2 IU/L
- BUN (24 h): 16.6 mg/dL
- CRE (24 h): 0.2 mg/dL
- Ca (24 h): 10.7 mg/dL
- Cl (24 h): 105.6 meq/L
- DBIL (24 h): 0 mg/dL
- GLC (24 h): 196.4 mg/dL
- IP (24 h): 7.1 mg/dL
- K (24 h): 4.4 meq/L
- LDH (24 h): 179.8 IU/L
- Na (24 h): 142 meq/L
- PL (24 h): 135.2 mg/dL
- RALB (24 h): 2.8 g/dL
- TBIL (24 h): 0.004 mg/dL
- TC (24 h): 75.2 mg/dL
- TG (24 h): 76.8 mg/dL
- TP (24 h): 5.4 g/dL
- gamma-GTP (24 h): 1.4 IU/L
